Data set [1] is described as follows: Triacylglycerols (TAG) content in rat serum after bolus intragastric administration of olive oil. The class given is in vivo, Wistar rats. The note with it: 1, 2, and 3 hours after bolus intragastric administration of olive oil; xenon 280 vol. %, krypton 24 vol. %. How it is done:
Studies on the effect of xenon on the absorption and transport of triacylglycerols were carried out in an experiment as described [Wang Z., Wang L., Zhang Z., Feng L., Song X., & Wu J. Apolipoprotein A-IV involves in glucose and lipid metabolism of rat//Nutrition & metabolism.-2019.-T. 16.- ? 1.-P. 1-9.], were performed on 12 Wistar rats weighing 320-360 g.
All animals were divided into 3 groups: 1-control, 2-experimental, 3-experimental. The animals were fasted for 6 hours before the experiment, and then rats of the control group (n=4) were injected intragastrically with bolus Extra Virgin olive oil (Aceites Toledo, Spain) at a dose of 1 ml/100 g body weight. […]
An introduction of gases into the oils was carried out using an emulsion production reactor with a volume of 11. […] A content of xenon and krypton in the oil was determined by a gas chromatography method. […]
Triacylglycerols (TAG) content was immediately determined in blood serum using enzyme kits from Chronolab (Spain). For this purpose, 10 μl of serum or standard TAG solution was added to 1 ml of a working reagent, incubated for 5 min at […] in a thermostat and an optical density at 500 nm was determined on a spectrophotometer.

Data set [2] is described as follows: Omega-3 index in male volunteers after intake of capsules. Format: in vivo. The note with it: xenon 5-250 vol. %, krypton 5-70 vol. % in Epax 5025 TGN. As for the experimental part: Testing was carried out on 14 male volunteers, age from 38 to 47 years. Control and 5 experimental groups of 2 people each. […] For testing the control group, the product used was Epax Ultra Concentrates (Epax 5025 TGN), manufactured by Epax Norway AS. For experimental group 1 xenon was introduced into the product in concentration of 5 vol. %; for experimental group 2-20 vol. %; for experimental group 3-250 vol. %; for experimental group 4-krypton-5 vol. %; for experimental group 5-24 vol. %; for experimental group 6-70 vol. %. A product saturation with gases was done as described above, but at a small overpressure: krypton at 2.0 mPa, and xenon—0.2 mPa. All products (for control and experimental groups) were encapsulated in soft gelatin capsules weighing 0.5 g. All volunteers took 4 capsules per day, 2 in the morning and 2 in the evening, on an empty stomach. Omega-3 index tests were again taken after 1 month.

The conditions of data set [3]: when injected into the body; cited from earlier work.

Each structure is given as a SMILES string. Some results are limits rather than exact numbers.

Regarding `[Kr]` [krypton], the “TAG levels versus control” value in data set [1] was “significant increase”. The “effect on Omega-3 index” value in data set [2] is given as “dose-dependent increase”.

Regarding `[Xe]` [xenon], the “time to complete elimination of the gas from the body” value in data set [3] was ≤ 4 h. The “TAG levels versus control” value in data set [1] is “significant increase”. Moreover, the “effect on Omega-3 index” value in data set [2] is “dose-dependent increase”.

These data come from US20260123654A1, “METHOD FOR IMPROVING THE BIOAVAILABILITY OF FUNCTIONAL FOOD PRODUCTS” (priority 2022, published 2026).
